Here are results for eight molecules from ChEMBL document CHEMBL5321294, “Evolution of Slow-Binding Inhibitors Targeting Histone Deacetylase Isoforms” (J Med Chem, 2023).

Each structure is given as a SMILES string. Non-standard residues stand in square brackets, D forms with d. Residues, ends and D or L forms follow the SMILES beside them. *: point of attachment. Asu = N[C@@H](CCCCCC(=O)O)C(=O)O; NHOH = ON*

Experiment [1] concerns the target T1, Protein deacetylase HDAC6 (Homo sapiens) (UniProt Q9UBN7).
T1 sequence (whole entry): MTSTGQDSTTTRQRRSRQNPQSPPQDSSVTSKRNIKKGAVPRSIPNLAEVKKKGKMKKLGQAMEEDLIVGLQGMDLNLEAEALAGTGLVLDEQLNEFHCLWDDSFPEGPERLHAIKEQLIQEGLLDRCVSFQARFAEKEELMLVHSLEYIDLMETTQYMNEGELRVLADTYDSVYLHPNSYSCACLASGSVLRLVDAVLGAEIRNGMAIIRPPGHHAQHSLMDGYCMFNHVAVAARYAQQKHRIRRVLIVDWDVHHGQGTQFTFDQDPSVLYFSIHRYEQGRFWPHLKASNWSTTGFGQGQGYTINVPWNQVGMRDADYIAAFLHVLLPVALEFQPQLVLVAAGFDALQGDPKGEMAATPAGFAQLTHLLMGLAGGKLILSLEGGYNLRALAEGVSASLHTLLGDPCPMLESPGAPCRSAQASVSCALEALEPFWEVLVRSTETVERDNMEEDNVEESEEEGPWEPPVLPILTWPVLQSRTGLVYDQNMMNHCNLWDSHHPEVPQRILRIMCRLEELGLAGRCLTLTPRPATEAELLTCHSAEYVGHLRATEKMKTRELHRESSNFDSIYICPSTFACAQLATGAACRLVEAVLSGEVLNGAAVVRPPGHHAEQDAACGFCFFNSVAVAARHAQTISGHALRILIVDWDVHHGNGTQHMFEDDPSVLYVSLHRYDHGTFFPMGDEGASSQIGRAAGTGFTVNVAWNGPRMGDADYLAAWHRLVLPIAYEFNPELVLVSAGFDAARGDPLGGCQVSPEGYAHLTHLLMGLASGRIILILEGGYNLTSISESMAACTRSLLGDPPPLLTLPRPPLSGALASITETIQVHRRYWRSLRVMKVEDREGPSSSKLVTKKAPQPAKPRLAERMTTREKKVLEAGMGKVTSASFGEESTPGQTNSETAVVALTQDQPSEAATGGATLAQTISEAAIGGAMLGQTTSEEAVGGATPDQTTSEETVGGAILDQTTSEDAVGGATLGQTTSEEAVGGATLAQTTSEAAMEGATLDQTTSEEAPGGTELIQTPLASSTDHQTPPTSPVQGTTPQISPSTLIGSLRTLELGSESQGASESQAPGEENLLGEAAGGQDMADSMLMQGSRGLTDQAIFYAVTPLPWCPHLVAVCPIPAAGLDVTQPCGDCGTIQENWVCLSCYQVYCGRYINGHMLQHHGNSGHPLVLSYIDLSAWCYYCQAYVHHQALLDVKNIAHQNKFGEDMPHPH
Briefly: Binding affinity to recombinant human HDAC6 using Ac-Leu-Gly-Lys(Ac)-AMC as substrate assessed as residence time.

Experiment [2] has as its target T2, Histone deacetylase 3 (Homo sapiens, UniProt O15379). Briefly: Binding affinity to HDAC3 (unknown origin) assessed as binding constant(k-2).
In experiment [3] the target is T2, Histone deacetylase 3. Description: Binding affinity to HDAC3 (unknown origin) assessed as inhibition constant(ki,1).
Experiment [4] addresses T1, Protein deacetylase HDAC6 (Homo sapiens). Description: Binding affinity to recombinant human HDAC6 using Ac-Leu-Gly-Lys(Ac)-AMC as substrate measured after 60 mins assessed as binding constant (k-2) by fluorescence based assay.
Experiment [5] deals with T2, Histone deacetylase 3. Description: Binding affinity to HDAC3 (unknown origin) assessed as binding constant(k2).
In experiment [6] the target is T2, Histone deacetylase 3. Description: Binding affinity to HDAC3 (unknown origin) assessed as residence time.
The target of experiment [7] is T3, Protein deacetylase HDAC6 (Homo sapiens, UniProt Q9UBN7).
T3 sequence (Q9UBN7 whole entry): T1 sequence (whole entry)
Description: Binding affinity to recombinant human HDAC6 using Ac-Leu-Gly-Lys(Ac)-AMC as substrate measured after 60 mins assessed as inhibition constant (ki,1) by fluorescence based assay.

Experiment [8] has as its target T2, Histone deacetylase 3. Description: Binding affinity to HDAC3 (unknown origin) assessed as inhibition constant.
In experiment [9] the target is T3, Protein deacetylase HDAC6. Description: Binding affinity to recombinant human HDAC6 using Ac-Leu-Gly-Lys(Ac)-AMC as substrate measured after 60 mins assessed as inhibition constant by fluorescence based assay.
The target in experiment [10] is T1, Protein deacetylase HDAC6 (Homo sapiens). Description: Binding affinity to recombinant human HDAC6 using Ac-Leu-Gly-Lys(Ac)-AMC as substrate measured after 60 mins assessed as binding constant (k2) by fluorescence based assay.
Experiment [11] deals with T4, Histone deacetylase 1 (Homo sapiens, UniProt Q13547).
T4 sequence (Q13547 whole entry): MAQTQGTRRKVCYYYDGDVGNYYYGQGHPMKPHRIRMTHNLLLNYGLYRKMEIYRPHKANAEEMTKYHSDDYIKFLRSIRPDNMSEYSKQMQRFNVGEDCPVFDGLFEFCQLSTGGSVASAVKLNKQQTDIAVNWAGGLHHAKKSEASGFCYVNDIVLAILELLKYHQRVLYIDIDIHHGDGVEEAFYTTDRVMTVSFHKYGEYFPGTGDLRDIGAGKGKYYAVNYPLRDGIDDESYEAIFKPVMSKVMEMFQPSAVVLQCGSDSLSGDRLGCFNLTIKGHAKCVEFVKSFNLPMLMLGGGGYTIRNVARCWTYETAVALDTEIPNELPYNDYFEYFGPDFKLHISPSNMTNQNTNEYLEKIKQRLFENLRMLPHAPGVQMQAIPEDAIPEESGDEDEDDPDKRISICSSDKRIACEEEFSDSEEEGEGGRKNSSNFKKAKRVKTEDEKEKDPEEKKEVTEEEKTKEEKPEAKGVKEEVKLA
Description: Binding affinity to HDAC1 (unknown origin) using Ac-LGKac-AMC as substrate assessed as half life
Experiment [12] deals with T5, Histone deacetylase 2 (Homo sapiens, UniProt Q92769).
T5 sequence (Q92769 whole entry): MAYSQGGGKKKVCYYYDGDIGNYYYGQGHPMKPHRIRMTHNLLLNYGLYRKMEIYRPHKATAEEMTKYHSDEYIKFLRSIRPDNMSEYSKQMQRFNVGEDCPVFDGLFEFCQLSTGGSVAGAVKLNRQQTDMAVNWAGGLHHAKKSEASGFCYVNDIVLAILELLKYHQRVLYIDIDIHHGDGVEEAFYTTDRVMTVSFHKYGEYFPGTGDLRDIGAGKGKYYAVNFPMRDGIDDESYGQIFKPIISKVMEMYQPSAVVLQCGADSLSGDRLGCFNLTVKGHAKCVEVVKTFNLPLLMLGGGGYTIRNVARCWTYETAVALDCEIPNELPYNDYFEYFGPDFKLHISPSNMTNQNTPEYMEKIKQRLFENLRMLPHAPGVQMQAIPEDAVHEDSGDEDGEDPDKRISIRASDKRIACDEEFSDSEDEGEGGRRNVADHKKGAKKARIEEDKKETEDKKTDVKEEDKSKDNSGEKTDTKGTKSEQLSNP
Description: Binding affinity to HDAC2 (unknown origin) using Ac-LGKac-AMC as substrate assessed as residence time
Experiment [13] concerns the target T5, Histone deacetylase 2. The source holds these as a separate data set.
Description: Binding affinity to HDAC2 (unknown origin) using Ac-LGKac-AMC as substrate assessed as half life
In experiment [14] the target is T2, Histone deacetylase 3.
Description: Binding affinity to HDAC3 (unknown origin) using Ac-LGKac-AMC as substrate assessed as half life
Experiment [15] deals with T2, Histone deacetylase 3. Briefly: Binding affinity to human HDAC3 assessed as binding rate constant (Kon).
Experiment [16] is filed under the species Homo sapiens. Description: Selectivity index, ratio of IC50 for Inhibition of human HDAC3 to IC50 for Inhibition of human HDAC1.
Experiment [17] deals with T2, Histone deacetylase 3. Description: Binding affinity to human HDAC3 assessed as dissociation rate constant (Koff).
For experiment [18], the species on record is Homo sapiens. Description: Selectivity index, ratio of IC50 for Inhibition of human HDAC3 to Inhibition of human IC50 for HDAC2.
In experiment [19] the target is T4, Histone deacetylase 1. Briefly: Binding affinity to human HDAC1 assessed as half life.
In experiment [20] the target is T2, Histone deacetylase 3. Briefly: Binding affinity to human HDAC3 assessed as residence time.
Experiment [21] has as its target T5, Histone deacetylase 2. Briefly: Binding affinity to human HDAC2 assessed as residence time.
Experiment [22] concerns the target T5, Histone deacetylase 2. Briefly: Binding affinity to human HDAC2 assessed as half life.
The target in experiment [23] is T2, Histone deacetylase 3. Briefly: Binding affinity to human HDAC3 assessed as half life.
Experiment [24] deals with T4, Histone deacetylase 1. Briefly: Binding affinity to HDAC1 (unknown origin) assessed as binding constant (Kon).
The target of experiment [25] is T4, Histone deacetylase 1. Description: Binding affinity to HDAC1 (unknown origin) assessed as dissociation constant (Koff).
In experiment [26] the target is T4, Histone deacetylase 1. Description: Inhibition of HDAC1 (unknown origin) measured after 24 hrs by fluorescence based assay.
Experiment [27] addresses T2, Histone deacetylase 3. Briefly: Inhibition of HDAC3 (unknown origin) measured after 1 hrs by fluorescence based assay.
Experiment [28] addresses T4, Histone deacetylase 1. Description: Inhibition of HDAC1 (unknown origin) measured after 1 hrs by fluorescence based assay.
Experiment [29] addresses T2, Histone deacetylase 3. Briefly: Inhibition of HDAC3 (unknown origin) measured after 24 hrs by fluorescence based assay.
Experiment [30] has as its target T5, Histone deacetylase 2. Briefly: Inhibition of HDAC2 (unknown origin) measured after 1 hrs by fluorescence based assay.
Experiment [31] addresses T5, Histone deacetylase 2. Briefly: Inhibition of HDAC2 (unknown origin) measured after 24 hrs by fluorescence based assay.
The species named for experiment [32] is Homo sapiens. Briefly: Selectivity ratio of Ki for human HDAC3 using Acetyl-Lys(Ac)-AMC as substrate to Ki for HDAC1 using Acetyl-Lys(Ac)-AMC as substrate.
Experiment [33] deals with T2, Histone deacetylase 3. Description: Binding affinity to human HDAC3 using Acetyl-Lys(Ac)-AMC as substrate assessed as binding constant (k-1).
Experiment [34] concerns the target T4, Histone deacetylase 1. Briefly: Binding affinity to HDAC1 (unknown origin) assessed as inhibition constant.
Experiment [35] addresses T6, Histone deacetylase 8 (Homo sapiens, UniProt Q9BY41).
T6 sequence (Q9BY41 whole entry): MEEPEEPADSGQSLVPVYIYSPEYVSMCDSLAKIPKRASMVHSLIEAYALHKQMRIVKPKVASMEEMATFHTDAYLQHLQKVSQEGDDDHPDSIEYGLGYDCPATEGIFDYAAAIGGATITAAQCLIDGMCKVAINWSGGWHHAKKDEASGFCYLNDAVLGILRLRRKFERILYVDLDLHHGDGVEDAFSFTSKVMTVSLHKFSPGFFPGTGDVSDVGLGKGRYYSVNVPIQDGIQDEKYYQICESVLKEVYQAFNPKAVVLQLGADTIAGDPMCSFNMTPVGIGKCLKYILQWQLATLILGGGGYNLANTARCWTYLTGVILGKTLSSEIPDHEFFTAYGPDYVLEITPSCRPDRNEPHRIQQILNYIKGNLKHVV
Briefly: Binding affinity to HDAC8 (unknown origin) assessed as inhibition constant.

Experiment [36] deals with T6, Histone deacetylase 8. Briefly: Binding affinity to HDAC8 (unknown origin) assessed as inhibition constant(ki,1).

T2 sequence (O15379 whole entry): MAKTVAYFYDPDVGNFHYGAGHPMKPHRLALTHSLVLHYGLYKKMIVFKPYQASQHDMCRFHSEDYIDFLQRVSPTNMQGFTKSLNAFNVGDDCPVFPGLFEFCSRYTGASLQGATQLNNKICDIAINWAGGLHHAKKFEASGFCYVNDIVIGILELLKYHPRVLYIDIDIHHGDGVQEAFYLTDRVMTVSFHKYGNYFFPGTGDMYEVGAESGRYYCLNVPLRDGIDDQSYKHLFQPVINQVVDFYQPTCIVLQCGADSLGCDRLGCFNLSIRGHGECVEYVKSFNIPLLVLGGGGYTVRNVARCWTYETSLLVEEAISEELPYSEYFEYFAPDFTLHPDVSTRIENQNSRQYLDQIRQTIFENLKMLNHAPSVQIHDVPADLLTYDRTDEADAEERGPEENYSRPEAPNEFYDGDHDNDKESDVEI

On to `O=C(CCCCC[C@@H]1NC(=O)[C@H]2CCCN2C(=O)[C@H](Cc2ccccc2)NC(=O)[C@H](Cc2ccccc2)NC1=O)NO` (cyclo([Asu](NHOH)FF[dP])), for which the TIME in experiment [1] amounted to 2.92 h; at Histone deacetylase 3 [6], 4.17 h. Moreover, the K on Histone deacetylase 3 [2] worked out at 0.004 min⁻¹; in [4], 0.006 min⁻¹; on Histone deacetylase 3 [5] it was 0.26 min⁻¹; in [10], 0.148 min⁻¹. For the same molecule, the Ki was 1.4 nM at Histone deacetylase 3 [3], 34 nM in experiment [7], 0.2 nM on Histone deacetylase 3 [8] and about 1.2 nM in experiment [9].

Turning to `CC(=O)Nc1ccc(C(=O)Nc2ccccc2N)cc1`, the T1/2 on Histone deacetylase 1 [11] is over 23.1 h; at Histone deacetylase 2 [12] it was 3.33 h; on Histone deacetylase 2 [13] it was over 2.32 h; at Histone deacetylase 3 [14], over 50 min.

As for `CC(=O)Nc1ccc(C(=O)Nc2cc(-c3ccncc3)ccc2N)cc1`, the values for the K on Histone deacetylase 3 [15] and on Histone deacetylase 3 [17] were 0.001 min⁻¹ µM⁻¹ and 0.002 min⁻¹, respectively. The Ratio IC50 in the experiment listed under Homo sapiens [16] came out at 1040; in the experiment filed under Homo sapiens [18] it was 100. In addition, the T1/2 at Histone deacetylase 1 [19] was 7.17 h; at Histone deacetylase 2 [22] it was 30 h; at Histone deacetylase 3 [23], 11.5 h. Besides, the TIME at Histone deacetylase 3 [20] stood at 10.4 h; at Histone deacetylase 2 [21] it was 41.7 h.

As to `Nc1ccc(-c2ccncc2)cc1NC(=O)N1CCCC1`, the K was found to be 0.185 min⁻¹ µM⁻¹ at Histone deacetylase 1 [24] and 0.011 min⁻¹ on Histone deacetylase 1 [25].

As to `NC/C(=C\C(=O)c1ccccc1)c1ccccc1`, the concentration for half-maximal inhibition (IC50) against Histone deacetylase 1 [26] is 8.65 µM; on Histone deacetylase 3 [27], over 50 µM; at Histone deacetylase 1 [28], 5.96 µM; against Histone deacetylase 3 [29], over 50 µM; against Histone deacetylase 2 [30], 19.6 µM; on Histone deacetylase 2 [31] it was 26.4 µM.

Turning to `CC(=O)Nc1ccc(C(=O)Nc2ccc(F)cc2N)cc1`, the K at Histone deacetylase 3 [15] was determined as 0.3 min⁻¹ µM⁻¹; at Histone deacetylase 3 [17], 0.009 min⁻¹. Besides, the Ratio IC50 in the experiment listed under Homo sapiens [16] and in the experiment filed under Homo sapiens [18] was over 17 each time. In addition, the T1/2 at Histone deacetylase 1 [19] came out at 0.0417 h; at Histone deacetylase 2 [22] it was 0.217 h; on Histone deacetylase 3 [23], 1.32 h. The results for the TIME at Histone deacetylase 3 [20] and on Histone deacetylase 2 [21] were 1.9 h and 0.3 h, respectively.

With `Nc1ccc(-c2ccccc2)cc1NC(=O)CCCCCC(=O)Nc1ccccc1`, in the experiment filed under Homo sapiens [32], the Ratio Ki was determined as 350. The K on Histone deacetylase 3 [33] worked out at 0.002 min⁻¹. The inhibition constant (Ki) worked out at 2500 nM at Histone deacetylase 3 [8] and 7 nM on Histone deacetylase 1 [34].

On to `O=C(CCCCCCC(=O)C(F)(F)F)Nc1ccccc1`, for which the K was 5 10^-3/min at Histone deacetylase 3 [2] and 0.24 min⁻¹ at Histone deacetylase 3 [5]. The inhibition constant Ki was about 33 nM on Histone deacetylase 8 [35] and 7.3 µM at Histone deacetylase 8 [36]. In addition, the figures for the TIME at Histone deacetylase 3 [20] and at Histone deacetylase 2 [21] were 3.33 h and 2.08 h, respectively.

As a reminder, the Ki is a dissociation constant, usually derived from enzyme kinetics or from competition with a known ligand. For orientation: IC50 means the concentration that gives 50% inhibition.
